Results: patent publication US6673798B2, “PDGF receptor kinase inhibitory compounds, their preparation, purification and pharmaceutical compositions including same” (Yissum Research Development Company of the Hebrew …, priority 1999, dated 2004)

Assays:
[1] = tested on: neointimal formation; conditions: controlled local delivery, rat carotid balloon injury model; cited from earlier work
[2] = tested on: porcine SMC; assay: Inhibition of SMC proliferation and recovery (cell count); type: cell-based; conditions: 10 μM; for mean reduction in SMC count by day 3: compared to DMSO treated control cells; for reversibility of the inhibitory effect on SMC proliferation: cultures washed on day 7, recovery counted day 13
Method: Smooth muscle cells (SMC) were obtained under aseptic conditions from porcine abdominal aortas. Each artery was cut open and the endothelial surface mechanically scraped. The vessels were then cut into 2 mm^2 fragments which were placed in culture dishes with Dulbecco's modified Eagle's medium (DMEM) supplemented with 15% (v/v) fetal calf serum (FCS), 100 u/ml penicillin, 100 μg/ml streptomycin, and […]. The tissue fragments were then placed in an incubator at 37° C. under 9% CO2 atmosphere until SMC outgrowth was detected (typically within 3-7 days). […] For experiments testing the effect of tyrphostins on growth inhibition and recovery (see below), SMC from passages 1-3 were replated in 15 mm wells pretreated with 3 μg/cm^2 fibronectin (Biological Industries, Kibbutz Beit Haemek, Israel) at 15,000 cells/well.
Inhibition of cell proliferation and recovery: Monolayer cell growth inhibition and recovery experiments were repeated 3 or 4 times. Each experiment was performed in triplicate. Approximately 15,000 cells (SMC or PAEC) in 1 ml of culture medium supplemented with either 15% FCS (SMC) or 10% FCS (PAEC) were seeded on day 0 in 15 mm-wells precoated with fibronectin (SMC) or uncoated (PAEC). Cultures were treated with 10 μM of the following tyrphostin compounds: AG2033, AC2034, AG2043 and AG2044 (for SMC) or AG2033 (for PAEC) dissolved in 0.1% DMSO on days 1 and 3. On day 7, cultures were washed and the cells allowed to recover. Typically cells were counted on days 3 and 6 for inhibition, and on day 13 for recovery. The medium supplemented with serum (DMEM for SMC and Ham's F12 for PAEC) was changed every other day throughout the experiment.
Cells were grown in the presence of the specified tyrphostins and were counted on days 3, 6 and 13 in culture. On day 7 the cultures were washed and the cells allowed to recover. […] The inhibitory effect of all three compounds was reversible, and the cells resumed normal growth response as soon as the treatment with the tyrphostins was withdrawn.

[3] = target: epidermal growth factor receptor (Homo sapiens, UniProt P00533); conditions: cited from earlier work
Sequence of epidermal growth factor receptor (P00533 25-1210, species assumed): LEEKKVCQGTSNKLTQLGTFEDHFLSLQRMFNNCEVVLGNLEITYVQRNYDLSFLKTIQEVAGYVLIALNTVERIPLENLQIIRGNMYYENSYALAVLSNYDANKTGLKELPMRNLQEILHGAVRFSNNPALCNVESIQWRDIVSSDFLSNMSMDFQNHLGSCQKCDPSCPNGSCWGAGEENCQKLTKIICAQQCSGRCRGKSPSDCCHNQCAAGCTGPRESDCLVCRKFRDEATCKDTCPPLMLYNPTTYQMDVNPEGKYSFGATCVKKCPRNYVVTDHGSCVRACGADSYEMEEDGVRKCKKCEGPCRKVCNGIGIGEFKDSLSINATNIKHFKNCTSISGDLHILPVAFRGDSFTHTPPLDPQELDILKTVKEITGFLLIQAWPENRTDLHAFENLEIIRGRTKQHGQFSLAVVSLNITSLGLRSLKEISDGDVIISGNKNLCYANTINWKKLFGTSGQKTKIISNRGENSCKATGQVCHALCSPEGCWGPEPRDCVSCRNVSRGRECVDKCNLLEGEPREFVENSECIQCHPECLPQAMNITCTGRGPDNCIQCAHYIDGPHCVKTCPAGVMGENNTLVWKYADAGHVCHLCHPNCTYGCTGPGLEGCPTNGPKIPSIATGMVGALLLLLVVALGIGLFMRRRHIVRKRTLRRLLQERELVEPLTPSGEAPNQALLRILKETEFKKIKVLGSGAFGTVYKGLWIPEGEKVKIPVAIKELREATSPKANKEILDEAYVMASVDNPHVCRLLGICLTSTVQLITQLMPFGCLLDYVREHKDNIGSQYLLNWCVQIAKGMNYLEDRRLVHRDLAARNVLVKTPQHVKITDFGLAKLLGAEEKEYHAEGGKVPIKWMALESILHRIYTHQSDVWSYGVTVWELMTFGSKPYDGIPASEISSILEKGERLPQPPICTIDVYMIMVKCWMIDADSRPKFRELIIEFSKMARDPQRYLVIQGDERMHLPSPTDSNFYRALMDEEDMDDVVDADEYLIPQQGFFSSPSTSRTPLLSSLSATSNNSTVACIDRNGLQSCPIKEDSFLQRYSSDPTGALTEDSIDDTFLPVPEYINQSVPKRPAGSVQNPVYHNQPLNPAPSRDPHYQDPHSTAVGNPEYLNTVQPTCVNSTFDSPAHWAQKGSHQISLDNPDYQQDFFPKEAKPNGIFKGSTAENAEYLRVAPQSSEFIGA

[4] = tested on: DNA synthesis stimulated by insulin, by epidermal growth factor, or by a combination of both; conditions: cited from earlier work
[5] = tested on: fibroblast growth factor-dependent DNA synthesis; conditions: relative to PDGF-dependent DNA synthesis; cited from earlier work
[6] = target: human PDGF α-receptor (Homo sapiens, UniProt P16234); conditions: cited from earlier work
[7] = target: T1, PDGF β-receptor (Homo sapiens, UniProt P09619); conditions: cited from earlier work
T1 sequence (P09619 33-1106): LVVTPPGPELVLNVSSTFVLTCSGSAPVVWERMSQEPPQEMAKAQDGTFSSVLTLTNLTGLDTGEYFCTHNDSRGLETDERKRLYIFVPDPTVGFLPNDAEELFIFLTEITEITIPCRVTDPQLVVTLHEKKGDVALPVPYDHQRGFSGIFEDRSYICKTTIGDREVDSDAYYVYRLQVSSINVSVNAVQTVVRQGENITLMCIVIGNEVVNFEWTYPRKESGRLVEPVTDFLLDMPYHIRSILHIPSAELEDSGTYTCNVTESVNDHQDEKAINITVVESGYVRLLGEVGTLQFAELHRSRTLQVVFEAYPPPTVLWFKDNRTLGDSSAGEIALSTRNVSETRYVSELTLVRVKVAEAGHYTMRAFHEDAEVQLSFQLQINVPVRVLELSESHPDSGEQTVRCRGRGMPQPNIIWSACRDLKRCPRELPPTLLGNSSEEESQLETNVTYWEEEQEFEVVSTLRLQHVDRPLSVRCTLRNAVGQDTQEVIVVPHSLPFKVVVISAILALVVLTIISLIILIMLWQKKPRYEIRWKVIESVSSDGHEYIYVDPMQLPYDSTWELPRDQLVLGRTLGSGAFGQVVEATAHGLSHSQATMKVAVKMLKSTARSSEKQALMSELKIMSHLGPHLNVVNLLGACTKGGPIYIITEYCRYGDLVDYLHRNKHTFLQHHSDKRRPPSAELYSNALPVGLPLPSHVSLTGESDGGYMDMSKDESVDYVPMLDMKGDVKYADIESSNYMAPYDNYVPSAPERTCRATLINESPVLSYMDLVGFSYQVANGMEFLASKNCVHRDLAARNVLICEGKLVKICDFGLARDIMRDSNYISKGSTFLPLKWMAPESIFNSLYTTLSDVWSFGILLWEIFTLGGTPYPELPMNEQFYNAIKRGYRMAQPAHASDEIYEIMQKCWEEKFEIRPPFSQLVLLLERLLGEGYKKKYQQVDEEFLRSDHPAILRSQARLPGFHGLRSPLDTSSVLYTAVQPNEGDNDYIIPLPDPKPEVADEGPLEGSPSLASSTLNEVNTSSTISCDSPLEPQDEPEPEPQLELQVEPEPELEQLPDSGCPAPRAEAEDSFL

[8] = target: stem cell factor receptor (c-Kit) (Homo sapiens, UniProt P10721); conditions: cited from earlier work
Sequence of stem cell factor receptor (c-Kit) (P10721 26-976): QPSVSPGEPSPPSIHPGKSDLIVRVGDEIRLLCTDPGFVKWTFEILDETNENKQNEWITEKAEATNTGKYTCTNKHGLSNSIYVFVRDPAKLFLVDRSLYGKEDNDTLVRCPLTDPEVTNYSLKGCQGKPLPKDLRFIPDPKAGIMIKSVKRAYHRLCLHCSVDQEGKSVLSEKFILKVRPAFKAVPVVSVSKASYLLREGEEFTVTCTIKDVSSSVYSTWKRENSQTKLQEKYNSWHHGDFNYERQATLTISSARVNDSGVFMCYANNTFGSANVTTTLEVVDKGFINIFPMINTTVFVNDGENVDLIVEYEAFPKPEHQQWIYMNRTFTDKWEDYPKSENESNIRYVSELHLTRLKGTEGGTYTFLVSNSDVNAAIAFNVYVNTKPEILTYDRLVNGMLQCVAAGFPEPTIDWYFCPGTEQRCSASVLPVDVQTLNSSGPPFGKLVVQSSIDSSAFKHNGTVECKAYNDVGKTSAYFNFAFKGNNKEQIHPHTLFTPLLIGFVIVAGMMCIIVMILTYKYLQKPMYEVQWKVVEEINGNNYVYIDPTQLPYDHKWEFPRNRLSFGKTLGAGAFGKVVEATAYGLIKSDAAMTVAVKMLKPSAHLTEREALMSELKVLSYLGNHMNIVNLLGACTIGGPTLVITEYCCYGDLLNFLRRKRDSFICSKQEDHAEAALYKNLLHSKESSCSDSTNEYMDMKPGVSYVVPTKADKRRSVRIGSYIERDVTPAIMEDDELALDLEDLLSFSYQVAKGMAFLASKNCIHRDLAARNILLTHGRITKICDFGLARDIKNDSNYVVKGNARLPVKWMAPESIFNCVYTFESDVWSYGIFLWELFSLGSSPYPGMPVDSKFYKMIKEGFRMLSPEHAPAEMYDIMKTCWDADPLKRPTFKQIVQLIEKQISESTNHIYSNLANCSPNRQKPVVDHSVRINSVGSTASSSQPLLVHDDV

[9] = target: vascular endothelial growth factor receptor KDR (Homo sapiens, UniProt P35968); conditions: cited from earlier work
[10] = tested on: porcine aortic endothelial cells; conditions: cited from earlier work
[11] = tested on: sis-transfected NIH 3T3 cells; conditions: cited from earlier work
[12] = tested on: src-transformed NIH 3T3 cells; conditions: cited from earlier work
[13] = target: T2, p60c-src(F527) (Gallus gallus, UniProt P00523, Y527F); conditions: immunoprecipitated from src-transformed NIH 3T3 cells; cited from earlier work
T2 construct: host or cells: src-transformed NIH 3T3 cells (immunoprecipitate)

[14] = target: T3, PDGFβR (Mus musculus, UniProt P05622); assay: PDGF-induced PDGFβR autophosphorylation in intact Swiss 3T3 cells (FIG. 8); type: cell-based; conditions: compared with AG2033 at 1 μM
T3 construct: A preparation of purified PDGFR from Swiss 3T3 cell membranes was used; endogenous in cells
T3 sequence (P05622 32-1098): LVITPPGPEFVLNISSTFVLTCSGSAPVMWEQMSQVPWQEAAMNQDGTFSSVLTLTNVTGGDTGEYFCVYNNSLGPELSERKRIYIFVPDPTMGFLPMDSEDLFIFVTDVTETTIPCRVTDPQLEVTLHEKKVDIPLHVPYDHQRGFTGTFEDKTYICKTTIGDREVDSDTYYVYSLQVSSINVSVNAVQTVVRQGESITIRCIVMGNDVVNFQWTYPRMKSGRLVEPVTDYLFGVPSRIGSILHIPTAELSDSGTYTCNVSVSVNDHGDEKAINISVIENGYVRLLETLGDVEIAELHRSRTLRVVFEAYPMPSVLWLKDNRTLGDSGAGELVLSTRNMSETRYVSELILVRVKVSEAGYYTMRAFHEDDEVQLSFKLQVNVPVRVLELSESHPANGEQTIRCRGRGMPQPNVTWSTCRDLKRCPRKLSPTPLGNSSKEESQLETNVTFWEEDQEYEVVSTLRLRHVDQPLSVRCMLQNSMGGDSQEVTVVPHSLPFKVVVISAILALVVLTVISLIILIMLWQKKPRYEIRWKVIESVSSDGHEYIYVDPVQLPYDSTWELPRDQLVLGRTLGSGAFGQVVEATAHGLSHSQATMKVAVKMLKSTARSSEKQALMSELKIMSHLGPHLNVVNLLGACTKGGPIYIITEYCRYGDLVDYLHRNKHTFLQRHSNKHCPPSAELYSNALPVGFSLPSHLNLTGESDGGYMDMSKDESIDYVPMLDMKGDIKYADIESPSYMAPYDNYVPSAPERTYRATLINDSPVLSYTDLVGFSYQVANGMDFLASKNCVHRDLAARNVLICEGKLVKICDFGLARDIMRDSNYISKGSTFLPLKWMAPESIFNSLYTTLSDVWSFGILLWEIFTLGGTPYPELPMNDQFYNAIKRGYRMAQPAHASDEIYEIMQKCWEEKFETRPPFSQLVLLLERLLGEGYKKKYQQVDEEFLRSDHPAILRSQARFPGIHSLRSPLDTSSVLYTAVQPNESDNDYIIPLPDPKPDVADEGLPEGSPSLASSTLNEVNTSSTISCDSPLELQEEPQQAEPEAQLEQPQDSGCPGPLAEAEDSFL
Method: Kinase reactions, using an isolated PDGFβR preparation, in the presence of 0.03-3 μM tyrphostin, were conducted, utilizing [γ-^32P]ATP as probe. Densitometric evaluation, relative to control lacking the tyrphostin inhibitor (100%), results in the percent autokinase activity, presented in Table 8 and in the dose-response curves for the purified transoid isomers AG2033 (FIG. 6) and AG2043 (FIG. 7). Further comparison between the resulting autoradiogrms for each pair of geometrical isomers AG2033 and AG2034 (upper panel); AG2043 and AG2044 (lower panel), for their inhibitory activity towards PDGF-induced PDGFβR autophosphorylation (concentration range: 0.1-10 μM) in intact cells is presented in FIG. 8. […] Similar potency relation exists between the AG2043 and AG2044 isomers.

[15] = target: T1, PDGF β-receptor; assay: PDGF-induced PDGFR autophosphorylation in intact PAEC cells; type: cell-based; design: expressed in transfected cells; host or cells: porcine aortic endothelial cells (PAEC), stably transfected; conditions: intact PAEC cells expressing PDGFR, PDGF-BB stimulated; read-out: IC50 (50% inhibition of phosphorylation) PDGFR
Method: Effect of tyrphostins on PDGF-induced PDGFR autophosphorylation in intact PAEC cells: PAEC cells, transfected with either PDGFR or KDR, cultivated in Ham's F-12 medium supplemented with 10% fetal calf serum (FCS), were synchronized for 20 hours in a medium containing 0.01% BSA. […] After stimulation, the cells were solubilized in Nonidet P-40 (1%) containing lysis buffer.
The analysis of PDGF β-receptor phosphorylation was performed as follows. Cell lysates were subjected to immunoprecipitation using the PDGF β-receptor specific antiserum R3 [5]. The precipitates were subjected to polyacrylamide (7.5%) gel electrophoresis in presence of sodium dodecyl sulfate (SDS-PAGE) and were thereafter blotted onto a nitrocellulose membrane (Hybond C-EXTRA, Amersham). Phosphorylated proteins were detected by immunoblotting using the horseradish-peroxidase conjugated phosphotyrosine antibodies PY20 and 4G10 (Upstate Biotechnology), followed by application of secondary horseradish-peroxidase conjugated goat-anti-mouse antibody and chemoluminescence-based detection (ECL, Amersham) and autoradiography.
The data in Table 9 presents the differential potencies of the various compounds with respect to PDGFR and KDR, as was performed on intact PAEC cells expressing these receptors (see experimental methods section above).

SMILES | mean reduction in SMC count by day 3 [2] | reversibility of the inhibitory effect on SMC proliferation [2] | effect on epidermal growth factor receptor autophosphorylation [3] | effect on DNA synthesis stimulated by insulin, EGF or a combination of both [4] | blocking effect on fibroblast growth factor-dependent DNA synthesis [5] | melting point | IC50 [15] | further results
CC(C)(C)c1cc(C=C(C#N)C#N)cc(C(C)(C)C)c1O [AG17] |  |  |  |  |  |  |  | inhibition of neointimal formation [1]: effectively inhibits
Cc1cc2ncc(-c3ccccc3)nc2cc1C [AG1295] | 61% | completely reversible | no effect | weak effects | over an order of magnitude weaker blocking effect |  |  | 
COc1cc2ncc(-c3ccccc3)nc2cc1OC [AG1296] |  |  | no effect | weak effects | over an order of magnitude weaker blocking effect |  |  | inhibition of signalling of human PDGF α-receptor [6]: potently inhibits; inhibition of signalling of human PDGF β-receptor [7]: potently inhibits; inhibition of signalling of stem cell factor receptor (c-Kit) [8]: potently inhibits; effect on autophosphorylation of KDR [9]: no effect; effect on DNA synthesis induced by VEGF [10]: no effect; effect on transformed phenotype of sis-transfected NIH 3T3 cells [11]: reverses the transformed phenotype; effect on src-transformed NIH 3T3 cells [12]: no effect; effect on activity of kinase p60c-src(F527) [13]: no effect
Cc1nc2cc3ncc(-c4ccccc4)nc3cc2n1C [AG2034, 1,2-dimethyl-7-phenyl imidazolo[5,4-g]quinoxaline] |  |  |  |  |  | 218 °C | 10 µM | concentration giving similar (marked) inhibition of PDGFβR autophosphorylation in intact cells [14]: 10 to 30 µM
Cc1nc2cc3ncc(-c4cccs4)nc3cc2n1C [AG2044, 1,2-dimethyl-7-(2-thiophene) imidazolo[5,4-g]quinoxaline] | 84% | completely reversible |  |  |  | 218 °C | 5 µM | 
